Measurements taken from PubChem BioAssay AID1199 (EPA DSSTox, 2008).
Active and inactive are the calls of the source.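 How the source made its calls: active means a tumour-causing dose and a tumour site recorded for mice in at least one sex group; inconclusive means only government mouse studies exist and were judged inadequate; inactive means mouse studies exist but none gave tumours.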

System: mouse carcinogenicity bioassay, TD50 from CPDB
Assay: DSSTox (CPDBAS) Carcinogenic Potency Database Summary Mouse Bioassay Results
Details: for outcome: TD50_Mouse_Note: no positive results
Description: The Carcinogenic Potency Database (CPDB) is a unique and widely used international resource of the results of over 6500 chronic, long-term animal cancer tests on over 1500 chemical substances. The CPDB provides easy access to the bioassay literature, with qualitative and quantitative analyses of both positive and negative experiments that have been published over the past 50 years in the general literature and by the National Cancer Institute/National Toxicology Program. The CPDB standardizes the diverse literature of cancer bioassays that vary widely in protocol, histopathological examination and nomenclature, and in the published author's choices of what information to provide in their papers. Results are reported in the CPDB for tests in rats, mice, hamsters, dogs, and nonhuman primates, and are based on the most positive result among all experiments for each sex-species. The DSSTox CPDBAS (all species) file incorporates data from the CPDB Summary Tables for the full list of over 1500 chemical substances tested in at least one species. Summary bioassay results for Mouse (TD50, tumor sites, male, female, both sexes) are provided in the CPDB Summary Tables and the DSSTox CPDBAS file for over 1000 chemical substances.
TD50 is a standardized quantitative measure of carcinogenic potency (analogous to an LD50) and is reported in the CPDB Summary Table for each species. Activity Score for actives is computed by mapping of LOG10 (1/TD50_Mouse_mmol) activity values spanning range [MIN, MAX] onto Integer 1-100 Activity Score range, where 100 is highest potency and 1 is lowest: Activity Score = 100 * INTEGER[(log10(1/Activity) - MIN)/(MAX […] MIN)]. If activity is reported but no TD50_Mouse_mmol value is computed, such as for a mixture, the Activity Score is assigned the activity value "50". […] Target sites are reported for each sex-species group with a positive result in the CPDB on the basis of a positive author's opinion for the particular site, using all results from both the general literature and NCI/NTP bioassays. If a chemical has two or more target sites listed, the results may be from different experiments, and a single site may be a target organ in more than one experiment, as well. Blank entry in TargetSites field indicates no results reported.

[1] = TD50_Mouse_Note: TD50 is harmonic mean of more than one positive test, TargetSites_Mouse_Female: lung, vascular system
[2] = TargetSites_Mouse_Female: no positive results
[3] = TD50_Mouse_Note: TD50 is harmonic mean of more than one positive test, greater than ten-fold variation among TD50 values for positive res, TargetSites_Mouse_Female: liver
[4] = TD50_Mouse_Note: TD50 is harmonic mean of more than one positive test, TargetSites_Mouse_Female: liver
[5] = TD50_Mouse_Note: TD50 is harmonic mean of more than one positive test, TargetSites_Mouse_Female: no positive results
[6] = TD50_Mouse_Note: TD50 is harmonic mean of more than one positive test, TargetSites_Mouse_Female: lung

Q: For `CCN(N)C=O`, which Potency [1] is on record?
A: Its Potency is 0.0318 mmol/kg/day.

Q: `CC(C)(OCc1ccc(-c2ccc(Cl)cc2)cc1)C(=O)O` was tested. Which Potency [2] did it give?
A: The Potency was 0.505 mmol/kg/day.

Q: For `O=Nc1ccc(NO)cc1`, which outcome [2] is on record?
A: The outcome was “inactive; no positive results”.

Q: How did the Potency [3] turn out when `Oc1ccc(O)cc1` was run?
A: The Potency was 2.04 mmol/kg/day.

Q: `ClC(Cl)=C(Cl)Cl` was tested. Which Potency [4] did it give?
A: Its Potency is 0.953 mmol/kg/day.

Q: Which outcome [2] does the source give for `CCN(CC)CCOc1ccc(/C(=C(\Cl)c2ccccc2)c2ccccc2)cc1` here?
A: The outcome was “inactive”.

Q: `[Cl-].[Hg+]` was tested. Which outcome did it give?
A: Its outcome is “inactive; no positive results”.

Q: How did the outcome [2] turn out when `CC(O)CCl` (centres undefined) was run?
A: The outcome was “inactive; no positive results”.

Q: With `CC(Cl)Cl` as the molecule, how does the outcome [2] read?
A: Its outcome is “inactive; no positive results”.

Q: Which Potency [1] does the source give for `CC(=O)NNc1ccc(CO)cc1` here?
A: The Potency was 1.34 mmol/kg/day.

Q: How did the Potency (TargetSites_Mouse_Female: hematopoietic system, lung, stomach) turn out when `ClC(Cl)(Cl)c1ccccc1` was run?
A: Its Potency is 0.00203 mmol/kg/day.

Q: `CCCl` was tested. Which Potency (TargetSites_Mouse_Female: uterus) did it give?
A: Its Potency is 28.1 mmol/kg/day.

Q: How did the outcome [2] turn out when `O=C(NCC1CCCCN1)c1cc(OCC(F)(F)F)ccc1OCC(F)(F)F` (centres undefined) was run?
A: The outcome was “inactive; no positive results”.

Q: For `Clc1nc(Cl)nc(Nc2ccccc2Cl)n1`, which outcome [2] is on record?
A: Its outcome is “inactive; no positive results”.

Q: For `O=Cc1ccccc1`, which Potency (TD50_Mouse_Note: TD50 is harmonic mean of more than one positive test, TargetSites_Mouse_Female: stomach) is on record?
A: Its Potency is 14 mmol/kg/day.

Q: How did the outcome [2] turn out when `CC(=O)Nc1ccc(OCC(O)CNC(C)C)cc1` (centres undefined) was run?
A: Its outcome is “inactive; no positive results”.

Q: Which outcome [2] does the source give for `CC1(C)S[C@@H]2[C@H](NC(=O)COc3ccccc3)C(=O)N2[C@H]1C(=O)O` here?
A: Its outcome is “inactive; no positive results”.

Q: For `Nc1cc(S(=O)(=O)[O-])cc2cc(S(=O)(=O)[O-])c(N=Nc3ccc(-c4ccc(N=Nc5c(S(=O)(=O)[O-])cc6cc(S(=O)(=O)[O-])cc(N)c6c5O)c(O)c4)cc3O)c(O)c12.[Cu].[Cu].[Na+].[Na+].[Na+].[Na+]`, which Potency [4] is on record?
A: Its Potency is 0.788 mmol/kg/day.

Q: For `Nc1c(Cl)cc(Cl)cc1Cl`, which Potency [2] is on record?
A: Its Potency is 1.32 mmol/kg/day.

Q: Which Potency does the source give for `Nc1ccc(-c2ccc(N)cc2)cc1` here?
A: Its Potency is 0.108 mmol/kg/day.

Q: What about the Potency (TD50_Mouse_Note: TD50 is harmonic mean of more than one positive test, TargetSites_Mouse_Female: harderian gland, liver, vascular system) of the same molecule?
A: The Potency was 0.0766 mmol/kg/day.

Q: For `ClCCOCCCl`, which Potency [5] is on record?
A: Its Potency is 0.0818 mmol/kg/day.

Q: With `CC(C)CON=O` as the molecule, how does the Potency [6] read?
A: The Potency was 3.01 mmol/kg/day.

Q: Which Potency [4] does the source give for `CC(O)COC(C)(C)C` (centres undefined) here?
A: The Potency was 14.1 mmol/kg/day.

Q: `O=C(Nc1nc(-c2ccc([N+](=O)[O-])o2)cs1)C(F)(F)F` was tested. Which Potency (TargetSites_Mouse_Female: stomach) did it give?
A: The Potency was 0.0325 mmol/kg/day.

Q: How did the Potency (TD50_Mouse_Note: TD50 is harmonic mean of more than one positive test, TargetSites_Mouse_Female: liver, thyroid gland) turn out when `O=C1Nc2ccc(Cl)cc2C(c2ccccc2)=NC1O` (centres undefined) was run?
A: Its Potency is 0.125 mmol/kg/day.

Q: How did the outcome [2] turn out when `Nc1c(Cl)cc([N+](=O)[O-])cc1Cl` was run?
A: The outcome was “inactive; no positive results”.

Q: For `C=CC#N`, which Potency (TD50_Mouse_Note: TD50 is harmonic mean of more than one positive test, TargetSites_Mouse_Female: harderian gland, stomach) is on record?
A: Its Potency is 0.119 mmol/kg/day.

Q: With `c1ccc(N=Nc2ccccc2)cc1` as the molecule, how does the outcome [2] read?
A: Its outcome is “inactive; no positive results”.

Q: For `NN`, which Potency [6] is on record?
A: Its Potency is 0.0914 mmol/kg/day.

Q: `CC/C(C)=N/O` was tested. Which Potency [2] did it give?
A: Its Potency is 6.13 mmol/kg/day.

Q: With `ClC(Cl)Cl` as the molecule, how does the Potency [3] read?
A: Its Potency is 0.93 mmol/kg/day.

Q: `COC(=O)c1ccc(C(=O)OC)cc1` was tested. Which outcome [2] did it give?
A: Its outcome is “inactive; no positive results”.

Q: How did the Potency [3] turn out when `CCSCCC(N)C(=O)O` (centres undefined) was run?
A: The Potency was 0.437 mmol/kg/day.

Q: How did the outcome [2] turn out when `ClC1C2(Cl)C3C4C5OC5C5C4C1(Cl)C(Cl)(C53)C2(Cl)Cl` (centres undefined) was run?
A: The outcome was “inactive; no positive results”.

Q: How did the Potency (TD50_Mouse_Note: TD50 is harmonic mean of more than one positive test, TargetSites_Mouse_Female: mammary gland) turn out when `C=C(Cl)CSC(=S)N(CC)CC` was run?
A: Its Potency is 0.189 mmol/kg/day.

Q: How did the outcome [2] turn out when `O=C(O)c1[nH]n(-c2ccc(S(=O)(=O)O)cc2)c(=O)c1N=Nc1ccc(S(=O)(=O)O)cc1` was run?
A: Its outcome is “inactive; no positive results”.

Q: Which Potency [2] does the source give for `O=C1c2ccccc2-c2ccc3c4c(ccc1c24)-c1ccccc1C3=O` here?
A: Its Potency is 32.8 mmol/kg/day.

Q: With `CCCN(CCC)c1c([N+](=O)[O-])cc(C(F)(F)F)cc1[N+](=O)[O-]` as the molecule, how does the Potency (TargetSites_Mouse_Female: liver, lung, stomach) read?
A: The Potency was 0.984 mmol/kg/day.

Q: How did the Potency (TD50_Mouse_Note: TD50 is harmonic mean of more than one positive test, TargetSites_Mouse_Female: lung, nasal cavity, stomach) turn out when `ClCC(Br)CBr` (centres undefined) was run?
A: The Potency was 0.0115 mmol/kg/day.

Q: With `c1ccncc1` as the molecule, how does the Potency [4] read?
A: Its Potency is 0.308 mmol/kg/day.

Q: Which Potency (TD50_Mouse_Note: TD50 is harmonic mean of more than one positive test, greater than ten-fold variation among TD50 values for positive res, TargetSites_Mouse_Female: liver, lung, TargetSites_Mouse_BothSexes: mammary gland) does the source give for `NNC(=O)c1ccncc1` here?
A: Its Potency is 0.198 mmol/kg/day.

Q: Which Potency (TD50_Mouse_Note: TD50 is harmonic mean of more than one positive test, TargetSites_Mouse_Female: gall bladder, liver, lung) does the source give for `CCCN(N)C=O` here?
A: Its Potency is 0.061 mmol/kg/day.

Q: With `OCCN(CCO)C(=S)S` as the molecule, how does the Potency [5] read?
A: Its Potency is 0.172 mmol/kg/day.
